The source made the active and inactive calls.
How the values were obtained:
[1] = target: T1, Long-chain-fatty-acid--AMP ligase FadD28 (Mycobacterium tuberculosis, UniProt P9WQ59); assay: Fluorescence polarization aasay to screen for inhibitors that compete for the binding of FadD28 to a bisubstrate Measured in Biochemical System Using Plate Reader - 2147-01_Inhibitor_Dose_CherryPick_Activity.; assay type: functional, Mycobacterium tuberculosis H37Rv
T1 sequence (P9WQ59 whole entry): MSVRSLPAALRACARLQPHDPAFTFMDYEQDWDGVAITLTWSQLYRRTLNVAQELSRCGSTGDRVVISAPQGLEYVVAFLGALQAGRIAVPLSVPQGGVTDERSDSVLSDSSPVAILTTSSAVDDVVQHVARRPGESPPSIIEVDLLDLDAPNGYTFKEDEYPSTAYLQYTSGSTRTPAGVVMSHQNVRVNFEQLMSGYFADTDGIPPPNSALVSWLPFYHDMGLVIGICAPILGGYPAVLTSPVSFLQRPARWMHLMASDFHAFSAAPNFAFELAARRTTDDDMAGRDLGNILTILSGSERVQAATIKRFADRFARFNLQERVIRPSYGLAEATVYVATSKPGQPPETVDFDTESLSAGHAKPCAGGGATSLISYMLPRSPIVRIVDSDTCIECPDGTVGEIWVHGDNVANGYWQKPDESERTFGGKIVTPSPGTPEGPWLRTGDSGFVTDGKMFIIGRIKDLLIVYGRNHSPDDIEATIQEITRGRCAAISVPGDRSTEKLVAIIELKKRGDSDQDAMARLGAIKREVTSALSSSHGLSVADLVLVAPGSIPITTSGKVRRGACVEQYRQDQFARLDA

[2] = target: T2, DNA repair protein RAD52 homolog (Homo sapiens, UniProt P43351); assay type: functional, biochemical
T2 sequence (P43351 whole entry): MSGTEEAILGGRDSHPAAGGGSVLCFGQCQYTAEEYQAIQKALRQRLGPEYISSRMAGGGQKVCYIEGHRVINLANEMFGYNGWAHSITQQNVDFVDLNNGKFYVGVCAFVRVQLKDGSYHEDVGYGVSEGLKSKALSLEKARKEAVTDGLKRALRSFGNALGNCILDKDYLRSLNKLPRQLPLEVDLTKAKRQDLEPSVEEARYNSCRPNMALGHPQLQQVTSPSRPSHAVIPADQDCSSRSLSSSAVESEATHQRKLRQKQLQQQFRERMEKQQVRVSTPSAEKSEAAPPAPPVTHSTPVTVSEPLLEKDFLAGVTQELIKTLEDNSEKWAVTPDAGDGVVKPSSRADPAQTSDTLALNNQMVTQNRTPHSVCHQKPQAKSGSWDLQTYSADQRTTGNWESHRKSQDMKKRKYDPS

[3] = test system: P388/ADR; assay: cells; assay type: functional; conditions: Mus musculus
[4] = test system: SN12K1; assay: cells; assay type: functional; conditions: Homo sapiens
[5] = test system: P388; assay: cells; assay type: functional; conditions: Mus musculus
[6] = Fluorescence-based cell-based high throughput dose response assay for inhibitors of the interaction of nucleotide-binding oligomerization domain containing 2 (NOD2) and the receptor-interacting serine-threonine kinase 2 (RIPK2).; assay type: functional; conditions: Homo sapiens
[7] = target: T3, Adenosylmethionine-8-amino-7-oxononanoate aminotransferase (Mycobacterium tuberculosis, UniProt P9WQ81); assay: Mycobacterium tuberculosis BioA enzyme inhibitor Measured in Biochemical System Using Plate Reader - 2163-02_Inhibitor_Dose_CherryPick_Activity.; assay type: functional, Mycobacterium tuberculosis UT205
T3 sequence (P9WQ81 whole entry): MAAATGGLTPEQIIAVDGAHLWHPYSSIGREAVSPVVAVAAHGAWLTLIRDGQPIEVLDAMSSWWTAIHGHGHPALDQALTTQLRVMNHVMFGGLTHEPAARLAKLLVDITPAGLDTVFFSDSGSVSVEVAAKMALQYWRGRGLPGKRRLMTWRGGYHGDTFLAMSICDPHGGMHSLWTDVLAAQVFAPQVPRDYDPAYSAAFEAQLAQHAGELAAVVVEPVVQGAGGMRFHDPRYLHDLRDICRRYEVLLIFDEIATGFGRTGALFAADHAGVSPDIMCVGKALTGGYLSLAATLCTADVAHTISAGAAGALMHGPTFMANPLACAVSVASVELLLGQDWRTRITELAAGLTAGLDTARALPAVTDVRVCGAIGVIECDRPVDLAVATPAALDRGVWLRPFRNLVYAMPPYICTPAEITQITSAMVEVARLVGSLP

[8] = target: Nuclear receptor subfamily 5 group A member 2 (Homo sapiens, UniProt O00482); assay type: functional, cell-based;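 note: HEK293T cells transfected with LRH-1 and a StAR promoter luciferase reporter; potency for inhibitors that lower LRH-1 driven reporter light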
[9] = target: Steroidogenic factor 1 (Homo sapiens, UniProt Q13285); assay: Counterscreen for inverse agonists of the liver receptor homolog-1 (LRH-1; NR5A2): Luminescence-based cell-based high throughput dose response assay to identify inverse agonists of the Steroidogenic Factor 1 Nuclear Receptor (SF1; NR5A1).; assay type: functional
Sequence of Steroidogenic factor 1 (Q13285 whole entry): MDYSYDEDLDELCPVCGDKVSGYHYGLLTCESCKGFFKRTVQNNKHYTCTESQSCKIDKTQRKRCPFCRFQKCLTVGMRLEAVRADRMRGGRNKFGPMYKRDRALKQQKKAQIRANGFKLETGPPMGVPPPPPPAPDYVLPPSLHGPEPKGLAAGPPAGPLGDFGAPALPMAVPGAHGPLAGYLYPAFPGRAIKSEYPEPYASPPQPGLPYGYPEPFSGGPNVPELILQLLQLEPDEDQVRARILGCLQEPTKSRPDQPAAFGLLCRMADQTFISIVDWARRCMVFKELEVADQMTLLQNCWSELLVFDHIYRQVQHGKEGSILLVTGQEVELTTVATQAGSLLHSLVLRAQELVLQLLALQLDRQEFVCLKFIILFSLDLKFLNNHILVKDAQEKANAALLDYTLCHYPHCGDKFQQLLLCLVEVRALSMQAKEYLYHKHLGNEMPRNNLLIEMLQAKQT

Sequence of Nuclear receptor subfamily 5 group A member 2 (O00482 whole entry): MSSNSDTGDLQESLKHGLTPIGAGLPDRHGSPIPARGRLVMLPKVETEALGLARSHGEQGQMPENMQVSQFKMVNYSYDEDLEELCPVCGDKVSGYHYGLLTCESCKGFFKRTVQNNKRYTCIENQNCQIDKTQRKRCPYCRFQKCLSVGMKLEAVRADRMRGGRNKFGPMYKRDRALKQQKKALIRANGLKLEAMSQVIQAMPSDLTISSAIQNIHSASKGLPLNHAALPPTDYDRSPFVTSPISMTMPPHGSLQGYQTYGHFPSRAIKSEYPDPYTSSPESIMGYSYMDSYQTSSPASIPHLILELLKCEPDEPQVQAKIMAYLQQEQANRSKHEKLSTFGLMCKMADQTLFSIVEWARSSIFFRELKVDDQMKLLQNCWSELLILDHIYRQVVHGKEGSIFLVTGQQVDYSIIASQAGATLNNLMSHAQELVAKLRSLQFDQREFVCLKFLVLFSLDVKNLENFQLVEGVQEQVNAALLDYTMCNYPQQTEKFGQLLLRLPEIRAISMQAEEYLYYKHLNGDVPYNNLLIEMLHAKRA

Cc1ccc(NC(=O)CSCC(=O)Nc2sccc2C#N)cc1
AC50 [1]: 18.9 µM (active)

COCCN1CCn2c(nc3cc(Nc4nnc(C)c5ccccc45)ccc32)C1
AC50 [2]: 11.9 µM (active)

CC(=O)OC1C(O)C(C)OC(OC2C(OC(=O)C3CCC4C(C3)OC3(CC(OC(=O)/C=C/c5ccccc5)C(C)CO3)C43CO3)OC(C)C(O)C2OC(C)=O)C1O (stereo unspecified)
GI50 [3]: > 1.75 µM (inactive) | GI50 [4]: 0.0172 µM (active) | GI50 [5]: 0.0895 µM (active) | IC50 [6]: 49.8 µM (inactive)

COc1ccc(CCN(C)c2ccc(C(N)=O)cc2[N+](=O)[O-])cc1OC
AC50 [7]: 5.7 µM (active)

CCN(CC)CCNC(=O)C(=O)NCC1OCCN1S(=O)(=O)c1cccs1 (stereo unspecified)
AC50 [2]: 29.3 µM (active)

COc1ccc(NC(=O)COC(=O)c2cc(S(=O)(=O)N3CCCC3)ccc2O)cc1
IC50 [8]: 35.9 µM (inactive) | IC50 [9]: 11.2 µM (inactive)

COc1ccc(NC(=O)c2cnc(C)cn2)cc1-n1cnnn1
AC50 [7]: 0.733 µM (active)

Reference: ChEMBL document CHEMBL1201862, “PubChem BioAssay data set” (2004)
